The values below come from US8367687B2, “Pyrazole derivatives” (Novartis AG, priority 2007, dated 2013).

For experiment [1], the target named is CDK4 (Homo sapiens, UniProt P11802). Briefly: CDK4 HTRF. It counts as biochemical.
The target in experiment [2] is CDK2 cyA (Homo sapiens, UniProt P24941). In words: CDK2 cyA IMAP. It counts as biochemical.
Experiment [3] deals with hCDK1/B (Homo sapiens, UniProt P06493). Briefly: hCDK1/B. It counts as biochemical.
Experiment [4] relates to p-pRb/S780. Briefly: p-pRb/S780 ELISA Cellular Assay (CDK4 ELISA assay). It counts as cell-based. As to conditions: cells treated for 24 hrs. The procedure:
Biological Activity p-pRb/S780 ELISA Cellular Assay
Maxisorp plates (Nunc 442404) are coated with 50 ul of 1 ug/mL total phospholated Retinoblast Protein (pRb) antibody (4H1 Cell Signaling 9309L) diluted in DPBS (Phosphate Buffered Saline) overnight at 4° C. The next day plates are blocked with Superblock in TBST (Pierce 37535) for one hour to overnight—changing block once during that time. Cells are plated at 50-60% confluency in a 96 well plate (Corning 3585) in 100 uL complete media (media containing fetal bovine serum (Gibco 1600-044), 2 mM L-Glutamine (Gibco 25030), and 1% Penicillin/Streptomycin (Gibco 15140-122) and grown overnight in a humidified chamber at 37° C. and 5% CO2. Compounds (in DMSO) are diluted in media to create a 7 point dilution series of compound with concentrations ranging from 110 uM to 0.027 uM. 10 ul of the diluted compounds are added to the cells, with final concentrations on cells ranging from 10 uM to 0.002 uM. Cells are treated for 24 hrs in a humidified chamber at 37° C. and 5% CO2. Following compound incubation, cells are lysed with 40 uL/well lysis buffer (50 mM Tris-HCL pH 7.5 (Invitrogen 15567-027), 120 mM NaCl (Promega V4221), 1 mM EDTA (Gibco 15575-038), 6 mM EGTA (Fisher 02783-100), 1% Nonidet P40 (Fluka R02771). Plates are placed on Titerplate shaker (Labline model 4625) for 5 minutes at 4° C. to lyse cells. After lysis, 10 ul of cell lysate and 50 ul 1×PBS/10% Superblock (Gibco 10010 and Pierce 37535) is added to each well of the precoated and blocked Maxisorp plate and allowed to bind at room temperature for 2 hours on Oribtron Rotator II (Boekel Industries Model 260250). Plates are then washed 3× with 1×TBST (Teknova T9201) using Biotek platewasher equipped with a Biostack. The final wash is not aspirated. The final wash is removed by flicking off and tapping plate on paper towels. ppRbS780 antibody (Cell Signaling 9307L) is diluted 1:1000 in 1×PBS/10% Superblock (Gibco 10010 and Pierce 37535) and 50 ul is added to each well. Plates are then incubated 1 hour on Oribtron Rotator II (Boekel Industries Model 260250). Plates are then washed as previously described. Goat anti-rabbit HRP (Promega W401B) is diluted 1:2500 1×PBS/10% Superblock (Gibco 10010 and Pierce 37535) and 50 ul is added to each well. Plates are then incubated 30 minutes on Oribtron Rotator II. Plates are then washed as previously described. 50 uL Ultra TMB ELISA (Pierce 34028) is then added to each well. Plates are incubated 5-20 minutes until blue color develops. 50 ul 2M Sulfuric acid (Mallinckrodt 2468-46) is then added to each well to stop the reaction. Absorbance at 450 nm for each plate is read on Spectramax Plus (Molecular Devices).

Setting [5] is: Table 1, read-out: CDK2 cyA IMAP.
Where [6] appears, read: Table 1, read-out: CDK4 ELISA assay IC50.
Setting [7] is: Table 2, read-out: CDK4 HTRF/ IC50.
Setting [8] is: Table 2, read-out: CDK2cyA IMAP/ IC50.
Where [9] appears, read: Table 2, read-out: p_pRb Cap EL/ IC50_ppRbinh.

Like-named read-outs stand apart in the source and are kept apart here.

hCDK1/B, sequence (P06493 whole entry): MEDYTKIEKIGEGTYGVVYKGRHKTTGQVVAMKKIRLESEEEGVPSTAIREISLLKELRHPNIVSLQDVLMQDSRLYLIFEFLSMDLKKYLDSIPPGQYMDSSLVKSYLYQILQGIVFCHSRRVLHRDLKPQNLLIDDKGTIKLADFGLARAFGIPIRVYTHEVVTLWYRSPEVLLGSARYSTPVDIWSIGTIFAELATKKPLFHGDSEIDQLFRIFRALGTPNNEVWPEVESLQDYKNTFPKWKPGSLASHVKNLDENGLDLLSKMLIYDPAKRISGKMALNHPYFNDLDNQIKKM
hCDK1/B, sequence (P14635 whole entry partner): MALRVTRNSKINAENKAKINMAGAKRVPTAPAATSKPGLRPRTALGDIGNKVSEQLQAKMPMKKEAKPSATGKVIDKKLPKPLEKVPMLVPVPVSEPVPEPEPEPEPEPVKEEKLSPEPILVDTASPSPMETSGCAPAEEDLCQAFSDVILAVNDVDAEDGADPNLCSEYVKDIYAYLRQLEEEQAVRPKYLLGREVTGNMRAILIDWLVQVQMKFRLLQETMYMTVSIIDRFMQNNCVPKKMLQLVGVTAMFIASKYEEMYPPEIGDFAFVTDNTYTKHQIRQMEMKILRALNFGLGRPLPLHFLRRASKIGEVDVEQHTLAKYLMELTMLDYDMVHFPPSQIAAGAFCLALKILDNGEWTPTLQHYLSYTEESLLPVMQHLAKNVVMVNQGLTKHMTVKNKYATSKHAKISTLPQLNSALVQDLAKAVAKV
CDK4, sequence (P11802 whole entry): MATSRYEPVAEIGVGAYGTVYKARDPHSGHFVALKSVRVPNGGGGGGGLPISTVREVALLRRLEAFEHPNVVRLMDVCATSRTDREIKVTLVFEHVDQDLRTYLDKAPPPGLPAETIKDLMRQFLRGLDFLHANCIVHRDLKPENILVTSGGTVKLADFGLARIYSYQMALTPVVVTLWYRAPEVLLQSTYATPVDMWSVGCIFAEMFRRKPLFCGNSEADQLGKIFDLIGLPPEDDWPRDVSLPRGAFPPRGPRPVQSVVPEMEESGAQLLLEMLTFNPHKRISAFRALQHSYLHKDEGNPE
CDK4, sequence (P24385 whole entry partner): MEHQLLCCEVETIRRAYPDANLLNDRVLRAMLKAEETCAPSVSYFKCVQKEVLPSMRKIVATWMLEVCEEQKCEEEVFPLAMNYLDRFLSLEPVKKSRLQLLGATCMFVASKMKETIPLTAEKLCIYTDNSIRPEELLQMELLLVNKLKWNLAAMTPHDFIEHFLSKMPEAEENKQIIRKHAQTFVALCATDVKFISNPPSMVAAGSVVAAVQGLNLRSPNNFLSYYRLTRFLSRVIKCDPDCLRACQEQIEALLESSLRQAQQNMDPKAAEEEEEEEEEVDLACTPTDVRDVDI

Turning to `CC(C)c1[nH]ncc1-c1ccnc(NC2CCC2)c1` [Example 2], the IC50 in experiment [1] (Table 1, read-out: CDK4 HTRF) was below 0.5 µM; in experiment [2] (setting [5]), below 0.5 µM; in experiment [3] (Table 1), below 0.5 µM; in experiment [4] (setting [6]) it was below 1 µM.
Regarding `CC(C)c1[nH]ncc1-c1ccnc(NCCCN(C)C)c1` [Example 16], the IC50 in experiment [1] (Table 1, read-out: CDK4 HTRF) was below 5 µM; in experiment [2] (setting [5]), at least 15 µM; in experiment [3] (Table 1), at least 15 µM; in experiment [4] (setting [6]), below 15 µM.
As for `CC(C)c1[nH]ncc1-c1ccnc(NCCN2CCCC2)c1` [Example 17], the IC50 in experiment [1] (Table 1, read-out: CDK4 HTRF) was below 5 µM; in experiment [2] (setting [5]), at least 15 µM; in experiment [3] (Table 1), at least 15 µM; in experiment [4] (setting [6]), below 15 µM.
`CC(C)c1[nH]ncc1-c1ccnc(NCCOc2ccccc2)c1` [Example 21]: the IC50 in experiment [1] (Table 1, read-out: CDK4 HTRF) is below 5 µM; in experiment [2] (setting [5]), below 10 µM; in experiment [3] (Table 1) it was below 10 µM; in experiment [4] (setting [6]), below 15 µM.
Consider `CC(C)c1[nH]ncc1-c1ccnc(NCc2ccncc2)c1` [Example 22], for which the IC50 is below 5 µM in experiment [1] (Table 1, read-out: CDK4 HTRF); below 5 µM in experiment [2] (setting [5]); below 5 µM in experiment [3] (Table 1); below 0.5 µM in experiment [4] (setting [6]).
Consider `CC(C)c1[nH]ncc1-c1ccnc(NCc2cccc(C(F)(F)F)c2)c1` [Example 25], for which the IC50 in experiment [1] (Table 1, read-out: CDK4 HTRF) is below 5 µM; in experiment [2] (setting [5]), below 5 µM; in experiment [3] (Table 1) it was below 5 µM; in experiment [4] (setting [6]), below 0.1 µM.
In the case of `CC(C)c1[nH]ncc1-c1ccnc(NCCN2CCCCC2)c1` [Example 31], the IC50 was below 5 µM in experiment [1] (Table 1, read-out: CDK4 HTRF); at least 15 µM in experiment [2] (setting [5]); at least 15 µM in experiment [3] (Table 1); below 15 µM in experiment [4] (setting [6]).
Regarding `CC(C)c1[nH]ncc1-c1ccnc(NCCN2CCOCC2)c1` [Example 32], the IC50 is below 5 µM in experiment [1] (Table 1, read-out: CDK4 HTRF); below 10 µM in experiment [2] (setting [5]); at least 15 µM in experiment [3] (Table 1); below 15 µM in experiment [4] (setting [6]).
In the same order, the values of `CC(C)c1[nH]ncc1-c1ccnc(NCc2ccc3c(c2)OCO3)c1` [Example 35] are below 5 µM, below 5 µM, below 5 µM and below 15 µM.
The corresponding values for `CC(C)c1[nH]ncc1-c1ccnc(NCCCN2CCOCC2)c1` [Example 36] are below 10 µM, at least 15 µM, at least 15 µM and below 15 µM.
The corresponding values for `CC(C)c1[nH]ncc1-c1ccnc(NCCC2CCCN2C)c1` (centres unmarked) [Example 42] are below 5 µM, at least 15 µM, at least 15 µM and below 15 µM.
As to `CC(C)c1[nH]ncc1-c1ccnc(NCC2CCNCC2)c1` [Example 47], the IC50 was below 10 µM in experiment [1] (Table 1, read-out: CDK4 HTRF); at least 15 µM in experiment [2] (setting [5]); at least 15 µM in experiment [3] (Table 1); below 15 µM in experiment [4] (setting [6]).
Regarding `CC(C)c1[nH]ncc1-c1ccnc(Nc2ccccc2)c1` [Example 48], the IC50 in experiment [1] (Table 1, read-out: CDK4 HTRF) is below 0.1 µM; in experiment [2] (setting [5]) it was below 0.05 µM; in experiment [3] (Table 1) it was below 0.1 µM; in experiment [4] (setting [6]), below 1 µM.
As for `CC(C)c1[nH]ncc1-c1ccnc(NCCCNC2CCCCC2)c1` [Example 51], the IC50 in experiment [1] (Table 1, read-out: CDK4 HTRF) is below 5 µM; in experiment [2] (setting [5]), at least 15 µM; in experiment [3] (Table 1), at least 15 µM; in experiment [4] (setting [6]), below 15 µM.
For the compound `c1cc(-c2cn[nH]c2C2CCCC2)cc(NCCN2CCCCC2)n1` [Example 61], the IC50 in experiment [1] (Table 1, read-out: CDK4 HTRF) was below 5 µM; in experiment [2] (setting [5]), at least 15 µM; in experiment [3] (Table 1) it was at least 15 µM; in experiment [4] (setting [6]) it was below 15 µM.
Regarding `Cc1ccc(CNc2cc(-c3cn[nH]c3C3CCCC3)ccn2)cc1` [Example 64], the IC50 in experiment [1] (Table 1, read-out: CDK4 HTRF) is below 10 µM; in experiment [2] (setting [5]) it was below 5 µM; in experiment [3] (Table 1) it was below 5 µM; in experiment [4] (setting [6]) it was below 5 µM.
As to `c1cc(-c2cn[nH]c2C2CCCC2)cc(NCCCN2CCOCC2)n1` [Example 65], the IC50 was below 5 µM in experiment [1] (Table 1, read-out: CDK4 HTRF); at least 15 µM in experiment [2] (setting [5]); at least 15 µM in experiment [3] (Table 1); below 15 µM in experiment [4] (setting [6]).
Take `Cc1ccccc1CNc1cc(-c2cn[nH]c2C2CCCCCC2)ccn1` [Example 66]: the IC50 was below 5 µM in experiment [1] (Table 1, read-out: CDK4 HTRF); below 10 µM in experiment [2] (setting [5]); below 10 µM in experiment [3] (Table 1); below 15 µM in experiment [4] (setting [6]).
Turning to `CC(C)c1n[nH]cc1-c1ccnc(NC2CCN(Cc3ccccc3)CC2)n1` [Example 85], the IC50 in experiment [1] (setting [7]) is below 0.05 µM; in experiment [2] (setting [8]), below 1 µM; in experiment [3] (Table 2), below 0.5 µM; in experiment [4] (setting [9]) it was below 10 µM.
The corresponding values for `Cc1n[nH]cc1-c1ccnc(NCC2CCCO2)n1` (centres unmarked) [Example 88] are below 15 µM, at least 15 µM, below 15 µM and below 15 µM.
In the same order, the values of `Cc1n[nH]cc1-c1ccnc(NCc2cccc(C(F)(F)F)c2)n1` [Example 89] are below 5 µM, below 10 µM, below 10 µM and below 15 µM.
The corresponding values for `Cc1n[nH]cc1-c1ccnc(NCCc2ccccc2)n1` [Example 91] are below 1 µM, below 10 µM, below 10 µM and below 15 µM.
As for `Cc1n[nH]cc1-c1ccnc(NCc2ccccc2)n1` [Example 93], the IC50 is below 5 µM in experiment [1] (setting [7]), below 15 µM in experiment [2] (setting [8]), below 10 µM in experiment [3] (Table 2) and below 15 µM in experiment [4] (setting [9]).
Take `Cc1n[nH]cc1-c1ccnc(NCCN(C)C)n1` [Example 94]: the IC50 was below 10 µM in experiment [1] (setting [7]), at least 15 µM in experiment [2] (setting [8]), at least 15 µM in experiment [3] (Table 2) and below 15 µM in experiment [4] (setting [9]).
As to `Cc1n[nH]cc1-c1ccnc(NCc2ccc(F)cc2)n1` [Example 95], the IC50 in experiment [1] (setting [7]) was below 5 µM; in experiment [2] (setting [8]), below 10 µM; in experiment [3] (Table 2) it was below 10 µM; in experiment [4] (setting [9]) it was below 15 µM.
With `Cc1n[nH]cc1-c1ccnc(NCCC#N)n1` [Example 96], the IC50 in experiment [1] (setting [7]) is below 5 µM; in experiment [2] (setting [8]) it was below 15 µM; in experiment [3] (Table 2), below 15 µM; in experiment [4] (setting [9]) it was below 15 µM.
As to `Cc1n[nH]cc1-c1ccnc(NC2CC2)n1` [Example 97], the IC50 in experiment [1] (setting [7]) was below 5 µM; in experiment [2] (setting [8]), below 10 µM; in experiment [3] (Table 2), below 10 µM; in experiment [4] (setting [9]), below 15 µM.
Take `Cc1n[nH]cc1-c1ccnc(NCCOc2ccccc2)n1` [Example 98]: the IC50 in experiment [1] (setting [7]) is below 5 µM; in experiment [2] (setting [8]), below 15 µM; in experiment [3] (Table 2), below 15 µM; in experiment [4] (setting [9]), below 15 µM.
Consider `Cc1n[nH]cc1-c1ccnc(NCCN2CCOCC2)n1` [Example 99], for which the IC50 is below 10 µM in experiment [1] (setting [7]), at least 15 µM in experiment [2] (setting [8]), at least 15 µM in experiment [3] (Table 2) and below 15 µM in experiment [4] (setting [9]).
Regarding `Cc1cnc(NC2CCN(C)CC2)nc1-c1c[nH]nc1C(C)C` [Example 184], the IC50 in experiment [1] (setting [7]) is below 0.5 µM; in experiment [2] (setting [8]) it was below 5 µM; in experiment [3] (Table 2), below 5 µM.
On to `Cc1[nH]nc(C(C)C)c1-c1ccnc(NC2CCN(C)CC2)n1` [Example 185], for which the IC50 in experiment [1] (setting [7]) is below 5 µM; in experiment [2] (setting [8]), at least 15 µM; in experiment [3] (Table 2), at least 15 µM.
Consider `CC(C)c1n[nH]cc1-c1ccnc(NC2CCCc3cccnc32)n1` (centres unmarked) [Example 186], for which the IC50 was below 0.5 µM in experiment [1] (setting [7]), above 15 µM in experiment [2] (setting [8]) and at least 15 µM in experiment [3] (Table 2).
In the same order, the values of `CC(C)c1n[nH]cc1-c1ccnc(N[C@H](C)c2ccccn2)n1` [Example 187] are below 0.1 µM, below 5 µM and below 5 µM.
In the same order, the values of `CC(C)c1n[nH]cc1-c1ccnc(NC2CC(C)(C)c3ccccc32)n1` (centres unmarked) [Example 191] are below 0.5 µM, below 5 µM and below 5 µM.
